In PMC12181291, “Production and biochemical characterization of Pleurotus ostreatus NRC 620 laccase and evaluation of its efficacy in apple juice clarification” (Scientific Reports, 2025):

System: T1, Pleurotus ostreatus NRC 620 laccase
T1 construct: gene pox2
Conditions: pH 4.5; ABTS 0.025-3 mM; crude culture supernatant

Km: 1990 µM
SMILES: CCn1c(=NN=c2sc3cc(S(=O)(=O)O)ccc3n2CC)sc2cc(S(=O)(=O)O)ccc21 [ABTS, 2, 2´-azino-bis (3-ethylbenzothiazoline-6-sulphonic acid)]
